From patent US20240261258A1, “Presurgical Perineural Administration of Resiniferatoxin For Reduction of Post-Operative Pain” (Sorrento Therapeutics, Inc., priority 2021, published 2024)

Key:
[1] = RTX plasma concentrations after nerve block or local application; type: in vivo, dog
Description: Fourteen adult female beagle dogs, weighing 11.9±0.6 kg and between 3-5 years of age, were enrolled in this study. Each animal was randomly assigned to one of four groups. Four dogs (group 1) received a femoral and sciatic nerve block with 12.5 μg RTX per nerve (25 μg RTX total) diluted with sterile saline for a total volume of 2 mL (half volume per block). Another four dogs (group 2) received a femoral and a sciatic nerve block with 3.12 μg RTX per nerve block (6.25 μg RTX total) diluted with sterile saline for a total volume of 2 mL (half volume per block). Group 3 (4 animals) received a femoral and sciatic nerve block with 5 mg bupivacaine total (standard of care) plus a total of 50 μg RTX (total volume of 4 mL, concentration 12.5 μg/mL) applied locally to the cut on the tibia for 10 min. Group 4 (2 animals) was the control group and received a femoral and a sciatic nerve block with 5 mg bupivacaine total (standard of care).
Blood (4-5 mL) was collected at the beginning of the study for complete blood count and chemistry parameters. Another 2 mL sample was collected at time 0 (baseline), 5, 15, 45, 60, and 90 minutes, and at 2, 3, 4, 6, and 8 hours after RTX administration for pharmacokinetic analysis to determine how plasma levels of RTX change over time. Dog plasma samples were extracted using an organic solvent mixture, dried under nitrogen, reconstituted and analyzed by reversed-phase HPLC. The mobile phase was nebulized using heated nitrogen in a Z-spray source/interface set to electrospray positive ionization mode. The ionized compounds are detected using tandem mass spectrometry or MS/MS.
RTX Plasma concentrations (pg/mL) were measured in the dogs following administration of RTX solution as femoral and sciatic nerve blocks.

[2] = tested on: healthy dogs undergoing TPLO surgery; test: Algometer measurements on the surgical site; type: in vivo, dog
Description: The injection site of RTX or local anesthetic was evaluated by visual examination (normal, red, swollen) and palpation (no pain, mild, severe). The surgical site was evaluated by visual examination (normal, red, swollen) and with the aid of an algometer. With the dog in lateral recumbency, the tip of the algometer was placed on the surgical site and pressure was manually applied until the animal moved the leg. During the baseline data collection, several measurements were taken until 3 measurements were within ±1 Newton (N). The number recorded corresponded to the average of these 3 values. After surgery, the force was applied only once. Data were collected from both the left (treated) and the right (non-treated) hindlimbs.
Mean plus or minus the standard deviation (±SD) force in Newton was recorded at the pressure applied on the surgical incision when the subject moved the leg from the algometer. The left side was the treated stifle.

## C=C(C)[C@]12C[C@@H](C)[C@@]34O[C@](Cc5ccccc5)(O[C@@H]1[C@@H]3C=C(COC(=O)Cc1ccc(O)c(OC)c1)C[C@]1(O)C(=O)C(C)=C[C@@H]41)O2 [RTX, resiniferatoxin]
[1]; high dose group (25 μg total nerve block)
  RTX plasma levels at last time point: still detectable at 8 hours
[1]; low dose group (6.25 μg total nerve block)
  Time after which RTX plasma levels fell to below detectable: 3 to 4 h
[1]; nerve block, regardless of dose, except one dog in group 1 (subject 5635)
  Time after administration until plasma levels of RTX reached detectable levels: at least 90 minutes
[2]; Baseline, L (treated) hindlimb, Group 1 High, 25 μg
  Algometer force on surgical site when the dog moved the leg (mean ± SD): 7.4 ± 3.1 Newton
[2]; Baseline, L (treated) hindlimb, Group 2 Low, 6.25 μg
  Algometer force on surgical site when the dog moved the leg (mean ± SD): 6.2 ± 2.3 Newton
[2]; Baseline, L (treated) hindlimb, Group 3 Local, 50 μg
  Algometer force on surgical site when the dog moved the leg (mean ± SD): 5.7 ± 2.5 Newton
[2]; Baseline, R (non-treated) hindlimb, Group 1 High, 25 μg
  Algometer force on surgical site when the dog moved the leg (mean ± SD): 7.1 ± 3.7 Newton
[2]; Baseline, R (non-treated) hindlimb, Group 2 Low, 6.25 μg
  Algometer force on surgical site when the dog moved the leg (mean ± SD): 7.0 ± 2.3 Newton
[2]; Baseline, R (non-treated) hindlimb, Group 3 Local, 50 μg
  Algometer force on surgical site when the dog moved the leg (mean ± SD): 8.5 ± 2.4 Newton
[2]; Day 1, L (treated) hindlimb, Group 1 High, 25 μg
  Algometer force on surgical site when the dog moved the leg (mean ± SD): 7.4 ± 5.9 Newton
[2]; Day 1, L (treated) hindlimb, Group 2 Low, 6.25 μg
  Algometer force on surgical site when the dog moved the leg (mean ± SD): 5.0 ± 2.1 Newton
[2]; Day 1, L (treated) hindlimb, Group 3 Local, 50 μg
  Algometer force on surgical site when the dog moved the leg (mean ± SD): 9.2 ± 2.1 Newton
[2]; Day 1, R (non-treated) hindlimb, Group 1 High, 25 μg
  Algometer force on surgical site when the dog moved the leg (mean ± SD): 6.1 ± 2.3 Newton
[2]; Day 1, R (non-treated) hindlimb, Group 2 Low, 6.25 μg
  Algometer force on surgical site when the dog moved the leg (mean ± SD): 3.8 ± 1.9 Newton
[2]; Day 1, R (non-treated) hindlimb, Group 3 Local, 50 μg
  Algometer force on surgical site when the dog moved the leg (mean ± SD): 9.6 ± 6.3 Newton
[2]; Day 2, L (treated) hindlimb, Group 1 High, 25 μg
  Algometer force on surgical site when the dog moved the leg (mean ± SD): 5.4 ± 3.3 Newton
[2]; Day 2, L (treated) hindlimb, Group 2 Low, 6.25 μg
  Algometer force on surgical site when the dog moved the leg (mean ± SD): 5.0 ± 2.7 Newton
[2]; Day 2, L (treated) hindlimb, Group 3 Local, 50 μg
  Algometer force on surgical site when the dog moved the leg (mean ± SD): 8.5 ± 1.5 Newton
[2]; Day 2, R (non-treated) hindlimb, Group 1 High, 25 μg
  Algometer force on surgical site when the dog moved the leg (mean ± SD): 4.9 ± 2.1 Newton
[2]; Day 2, R (non-treated) hindlimb, Group 2 Low, 6.25 μg
  Algometer force on surgical site when the dog moved the leg (mean ± SD): 3.7 ± 2.0 Newton
[2]; Day 2, R (non-treated) hindlimb, Group 3 Local, 50 μg
  Algometer force on surgical site when the dog moved the leg (mean ± SD): 6.5 ± 3.5 Newton
[2]; Day 3, L (treated) hindlimb, Group 1 High, 25 μg
  Algometer force on surgical site when the dog moved the leg (mean ± SD): 5.3 ± 1.5 Newton
[2]; Day 3, L (treated) hindlimb, Group 2 Low, 6.25 μg
  Algometer force on surgical site when the dog moved the leg (mean ± SD): 5.9 ± 4.2 Newton
[2]; Day 3, L (treated) hindlimb, Group 3 Local, 50 μg
  Algometer force on surgical site when the dog moved the leg (mean ± SD): 7.7 ± 2.0 Newton
[2]; Day 3, R (non-treated) hindlimb, Group 1 High, 25 μg
  Algometer force on surgical site when the dog moved the leg (mean ± SD): 7.1 ± 1.8 Newton
[2]; Day 3, R (non-treated) hindlimb, Group 2 Low, 6.25 μg
  Algometer force on surgical site when the dog moved the leg (mean ± SD): 6.3 ± 1.5 Newton
[2]; Day 3, R (non-treated) hindlimb, Group 3 Local, 50 μg
  Algometer force on surgical site when the dog moved the leg (mean ± SD): 6.5 ± 3.4 Newton
[2]; Day 14, L (treated) hindlimb, Group 1 High, 25 μg
  Algometer force on surgical site when the dog moved the leg (mean ± SD): 5.3 ± 3.9 Newton
[2]; Day 14, L (treated) hindlimb, Group 2 Low, 6.25 μg
  Algometer force on surgical site when the dog moved the leg (mean ± SD): 2.9 ± 1.2 Newton
[2]; Day 14, L (treated) hindlimb, Group 3 Local, 50 μg
  Algometer force on surgical site when the dog moved the leg (mean ± SD): 6.6 ± 4.2 Newton
[2]; Day 14, R (non-treated) hindlimb, Group 1 High, 25 μg
  Algometer force on surgical site when the dog moved the leg (mean ± SD): 5.0 ± 2.3 Newton
[2]; Day 14, R (non-treated) hindlimb, Group 2 Low, 6.25 μg
  Algometer force on surgical site when the dog moved the leg (mean ± SD): 5.2 ± 1.5 Newton
[2]; Day 14, R (non-treated) hindlimb, Group 3 Local, 50 μg
  Algometer force on surgical site when the dog moved the leg (mean ± SD): 4.7 ± 3.5 Newton
[2]; Day 28, L (treated) hindlimb, Group 1 High, 25 μg
  Algometer force on surgical site when the dog moved the leg (mean ± SD): 5.8 ± 2.4 Newton
[2]; Day 28, L (treated) hindlimb, Group 2 Low, 6.25 μg
  Algometer force on surgical site when the dog moved the leg (mean ± SD): 4.5 ± 3.9 Newton
[2]; Day 28, L (treated) hindlimb, Group 3 Local, 50 μg
  Algometer force on surgical site when the dog moved the leg (mean ± SD): 4.4 ± 2.6 Newton
[2]; Day 28, R (non-treated) hindlimb, Group 1 High, 25 μg
  Algometer force on surgical site when the dog moved the leg (mean ± SD): 4.6 ± 3.5 Newton
[2]; Day 28, R (non-treated) hindlimb, Group 2 Low, 6.25 μg
  Algometer force on surgical site when the dog moved the leg (mean ± SD): 2.7 ± 2.1 Newton
[2]; Day 28, R (non-treated) hindlimb, Group 3 Local, 50 μg
  Algometer force on surgical site when the dog moved the leg (mean ± SD): 5.0 ± 1.9 Newton
[2]; Day 56, L (treated) hindlimb, Group 1 High, 25 μg
  Algometer force on surgical site when the dog moved the leg (mean ± SD): 7.0 ± 3.1 Newton
[2]; Day 56, L (treated) hindlimb, Group 2 Low, 6.25 μg
  Algometer force on surgical site when the dog moved the leg (mean ± SD): 4.9 ± 1.8 Newton
[2]; Day 56, L (treated) hindlimb, Group 3 Local, 50 μg
  Algometer force on surgical site when the dog moved the leg (mean ± SD): 10.9 ± 8.7 Newton
[2]; Day 56, R (non-treated) hindlimb, Group 1 High, 25 μg
  Algometer force on surgical site when the dog moved the leg (mean ± SD): 6.3 ± 1.2 Newton
[2]; Day 56, R (non-treated) hindlimb, Group 2 Low, 6.25 μg
  Algometer force on surgical site when the dog moved the leg (mean ± SD): 5.7 ± 1.7 Newton
[2]; Day 56, R (non-treated) hindlimb, Group 3 Local, 50 μg
  Algometer force on surgical site when the dog moved the leg (mean ± SD): 9.0 ± 4.6 Newton
